The assay has as its target T1, TRPM5 channels (Homo sapiens, UniProt Q9NZQ8).
T1 construct: expressed in transfected cells; host or cells: CHO
T1 sequence (Q9NZQ8 1-1165): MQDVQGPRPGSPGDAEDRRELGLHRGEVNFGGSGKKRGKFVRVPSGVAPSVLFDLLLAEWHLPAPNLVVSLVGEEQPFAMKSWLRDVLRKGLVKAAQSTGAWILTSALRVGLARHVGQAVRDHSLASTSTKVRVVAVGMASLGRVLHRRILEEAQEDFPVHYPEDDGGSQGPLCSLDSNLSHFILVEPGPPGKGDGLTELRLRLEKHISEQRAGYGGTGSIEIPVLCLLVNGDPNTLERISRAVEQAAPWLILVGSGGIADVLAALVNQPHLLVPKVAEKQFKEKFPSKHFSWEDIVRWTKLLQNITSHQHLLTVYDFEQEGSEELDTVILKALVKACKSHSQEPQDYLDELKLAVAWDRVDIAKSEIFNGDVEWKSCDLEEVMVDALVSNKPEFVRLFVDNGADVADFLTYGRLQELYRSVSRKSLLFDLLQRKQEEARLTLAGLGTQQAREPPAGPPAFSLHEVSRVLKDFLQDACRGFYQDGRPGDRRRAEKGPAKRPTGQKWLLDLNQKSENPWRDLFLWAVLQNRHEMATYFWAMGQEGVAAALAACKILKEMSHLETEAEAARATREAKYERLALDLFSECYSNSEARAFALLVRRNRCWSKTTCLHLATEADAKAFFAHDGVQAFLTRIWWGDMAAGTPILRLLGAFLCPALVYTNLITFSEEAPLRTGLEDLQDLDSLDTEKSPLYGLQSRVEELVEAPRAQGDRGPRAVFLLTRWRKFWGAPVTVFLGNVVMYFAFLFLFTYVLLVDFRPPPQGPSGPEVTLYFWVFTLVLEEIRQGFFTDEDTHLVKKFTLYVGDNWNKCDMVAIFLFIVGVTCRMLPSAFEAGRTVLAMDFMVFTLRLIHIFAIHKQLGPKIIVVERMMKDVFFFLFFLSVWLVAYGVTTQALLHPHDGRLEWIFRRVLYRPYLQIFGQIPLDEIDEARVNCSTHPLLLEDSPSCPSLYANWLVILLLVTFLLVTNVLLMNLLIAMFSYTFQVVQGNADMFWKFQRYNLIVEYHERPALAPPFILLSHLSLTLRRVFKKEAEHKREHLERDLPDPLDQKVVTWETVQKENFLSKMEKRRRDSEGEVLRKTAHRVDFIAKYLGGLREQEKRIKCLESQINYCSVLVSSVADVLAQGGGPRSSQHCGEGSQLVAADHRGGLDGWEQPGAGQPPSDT
The assay is described as follows: TRP Family FLIPR Assay, TRPM5. The assay is classed as cell-based. Conditions: CHO cells. The method, then: The compound of Example 5 was tested for selectivity against a panel of Human TRP family ion channels in a TRP Family FLIPR Assay as described below. • 1. TRPC3 channels (human TRPC3 variant 1 gene, expressed in HEK293 cells). • 2. TRPC4 channels (human TRPC4 gene, expressed in HEK293 cells). • 3. TRPC5 channels (human TRPC5 gene, expressed in HEK293 cells). • 4. TRPC6 channels (human TRPC6 gene, expressed in HEK293 cells). • 5. TRPM2 channels (human TRPM2 gene, transiently expressed in HEK293 cells). • 6. TRPM3 channels (human TRPM3 gene, transiently expressed in HEK293 cells). • 7. TRPM4 channels (human TRPM4 gene, expressed in CHO cells). • 8. […]
Data acquisition was performed via the FLIPR Control software supplied with the FLIPR System (MDS-AT) and data was analyzed using Microsoft Excel (Microsoft Corp., Redmond, WA) or GraphPad Prism. […]
[formula] where Base is the response at low concentrations of test article, Max is the maximum response at high concentrations, xhalf the EC50, or IC50, the concentration of test article producing either half-maximal activation or inhibition, and rate is the Hill coefficient. […] No assumptions about the fit parameters was made; the fit parameters were determined by the algorithm.
The effect of each test article was evaluated at eight (8) concentrations: 0.003, 0.01, 0.03, 0.1, 0.3, 1, 3 and 10 μM, n≤4 wells/concentration). […]

Here are results for one compound from patent publication US12391683B2, “Therapeutic compounds and methods” (Actio Biosciences, Inc., priority 2022, dated 2025).

SMILES strings stand for the structures. Where only a bound is given, the exact number is not on record here.

Usually EC50 stands for the midpoint of the concentration-response curve. The term IC50 denotes the concentration that gives 50% inhibition. Regarding `CC(C)(O)c1cnc(N2C[C@@]3(CC[C@@H](F)[C@](C)(Cn4cnc5ccc(C#N)cc54)C3)OC2=O)cn1` (single isomer, unassigned) [Example 5], under “agonist mode, vs EMAX of Mg-ATP 33.3 μM, read-out: EC50 hTRPM5”, the EC50 was above 10 µM. Where the note is “antagonist mode, activated with Mg-ATP 75 μM, 0.003-10 μM, read-out: IC50 hTRPM5”, the IC50 was above 10 µM.
